The source of these data is the OligoGym collection.

HELM strings list units from the 5' end as sugar, base in round brackets, then linkage (d deoxyribose, r ribose, m 2'-O-methyl, p phosphodiester). Strings are as the collection lists them, not checked against the first reports. ss, as = sense and antisense strand; [lna] = locked nucleic acid (LNA); [una] = unlocked nucleic acid; [fl2r] = 2'-fluoro
Note: test system not given here.

The conditions of the data set: siRNA.
In turn, “RNA1{r(G)p.r(G)p.r(G)p.r(A)p.r(G)p.r(G)p.r(A)p.r(U)p.[fl2r](G)p.r(A)p.r(C)p.[fl2r](A)p.r(A)p.r(A)p.r(G)p.r(A)p.r(A)p.r(G)p.r(C)p.r(T)p.r(T)}|RNA2{r(G)p.r(C)p.r(U)p.r(U)p.r(C)p.r(U)p.r(U)p.[fl2r](U)p.r(G)p.r(U)p.r(C)p.r(A)p.r(U)p.r(C)p.r(C)p.r(U)p.r(C)p.r(C)p.r(C)p.r(T)p.r(T)}$$$RNA1{StrandType:ss}|RNA2{StrandType:as}$” yielded a target mRNA knockdown of 84%. To “RNA1{r(U)p.r(U)p.r(U)p.[fl2r](C)p.[fl2r](C)p.[fl2r](C)p.[fl2r](C)p.[fl2r](C)p.r(A)p.r(G)p.r(G)p.r(U)p.r(A)p.r(A)p.[fl2r](C)p.r(G)p.r(A)p.r(U)p.r(U)p.r(T)p.r(T)}|RNA2{r(A)p.r(A)p.r(U)p.[fl2r](C)p.r(G)p.r(U)p.r(U)p.[fl2r](A)p.[fl2r](C)p.r(C)p.r(U)p.r(G)p.r(G)p.r(G)p.r(G)p.r(G)p.r(A)p.r(A)p.r(A)p.r(T)p.r(T)}$$$RNA1{StrandType:ss}|RNA2{StrandType:as}$” belongs 68%. To “RNA1{r(A)p.r(U)p.r(C)p.r(A)p.r(C)p.r(A)p.r(A)p.r(A)p.r(C)p.r(C)p.r(C)p.r(C)p.m(U)p.r(A)p.r(G)p.r(A)p.r(G)p.r(G)p.r(G)p.r(T)p.r(T)}|RNA2{r(C)p.r(C)p.r(C)p.r(U)p.r(C)p.m(U)p.r(A)p.r(G)p.r(G)p.r(G)p.r(G)p.r(U)p.r(U)p.r(U)p.r(G)p.r(U)p.r(G)p.r(A)p.r(U)p.r(T)p.r(T)}$$$RNA1{StrandType:ss}|RNA2{StrandType:as}$” belongs 29%; to “RNA1{m(G)p.m(G)p.m(A)p.r(C)p.r(U)p.m(A)p.r(C)p.r(U)p.m(A)p.m(A)p.r(C)p.r(C)p.r(U)p.r(C)p.r(C)p.m(A)p.m(G)p.r(U)p.r(U)p.r(T)p.r(T)}|RNA2{r(A)p.r(A)p.r(C)p.r(U)p.r(G)p.r(G)p.r(A)p.r(G)p.r(G)p.r(U)p.r(U)p.r(A)p.r(G)p.r(U)p.r(A)p.r(G)p.r(U)p.r(C)p.r(C)p.r(T)p.r(T)}$$$RNA1{StrandType:ss}|RNA2{StrandType:as}$”, 65%. To “RNA1{m(U)p.r(U)p.m(U)p.r(G)p.m(A)p.r(U)p.m(C)p.r(A)p.m(G)p.r(C)p.m(G)p.r(G)p.m(A)p.r(G)p.m(A)p.r(C)p.m(U)p.r(C)p.m(G)p.r(T)p.r(T)}|RNA2{r(C)p.r(G)p.r(A)p.r(G)p.r(U)p.r(C)p.r(U)p.r(C)p.r(C)p.m(G)p.r(C)p.r(U)p.r(G)p.r(A)p.m(U)p.r(C)p.r(A)p.r(A)p.r(A)p.r(T)p.r(T)}$$$RNA1{StrandType:ss}|RNA2{StrandType:as}$” belongs 49%. Regarding “RNA1{r(G)p.r(C)p.r(C)p.r(U)p.[fl2r](C)p.r(U)p.r(C)p.[fl2r](U)p.r(A)p.r(U)p.r(C)p.r(C)p.r(U)p.[fl2r](U)p.r(A)p.r(G)p.r(C)p.r(U)p.r(U)p.r(T)p.r(T)}|RNA2{r(A)p.r(A)p.r(G)p.r(C)p.[fl2r](U)p.r(A)p.r(A)p.r(G)p.r(G)p.r(A)p.[fl2r](U)p.r(A)p.r(G)p.r(A)p.r(G)p.r(A)p.r(G)p.r(G)p.r(C)p.r(T)p.r(T)}$$$RNA1{StrandType:ss}|RNA2{StrandType:as}$”, the target mRNA knockdown stood at 47%. To “RNA1{r(A)p.m(A)p.r(G)p.m(G)p.r(A)p.m(G)p.r(A)p.m(U)p.r(C)p.m(A)p.r(A)p.m(C)p.r(A)p.m(U)p.r(U)p.m(U)p.r(U)p.m(C)p.r(A)p.r(T)p.r(T)}|RNA2{m(U)p.r(G)p.m(A)p.r(A)p.m(A)p.r(A)p.m(U)p.r(G)p.m(U)p.r(U)p.m(G)p.r(A)p.m(U)p.r(C)p.m(U)p.r(C)p.m(C)p.r(U)p.m(U)p.r(T)p.r(T)}$$$RNA1{StrandType:ss}|RNA2{StrandType:as}$” belongs 83%; to “RNA1{r(A)p.r(G)p.r(A)p.r(G)p.r(A)p.r(G)p.r(G)p.r(U)p.r(G)p.r(G)p.r(A)p.r(G)p.r(G)p.m(U)p.r(A)p.r(U)p.r(C)p.r(U)p.r(C)p.r(T)p.r(T)}|RNA2{r(G)p.r(A)p.r(G)p.r(A)p.m(U)p.r(A)p.r(C)p.r(C)p.r(U)p.r(C)p.r(C)p.r(A)p.r(C)p.r(C)p.r(U)p.r(C)p.r(U)p.r(C)p.r(U)p.r(T)p.r(T)}$$$RNA1{StrandType:ss}|RNA2{StrandType:as}$”, 90%. To “RNA1{r(A)p.r(G)p.r(C)p.m(C)p.r(A)p.m(C)p.r(A)p.r(U)p.r(U)p.r(U)p.r(C)p.m(U)p.r(A)p.r(G)p.r(G)p.r(A)p.r(G)p.r(A)p.r(U)p.r(T)p.r(T)}|RNA2{r(A)p.r(U)p.r(C)p.r(U)p.r(C)p.r(C)p.m(U)p.r(A)p.m(G)p.r(A)p.r(A)p.r(A)p.r(U)p.r(G)p.m(U)p.r(G)p.r(G)p.r(C)p.r(U)p.r(T)p.r(T)}$$$RNA1{StrandType:ss}|RNA2{StrandType:as}$” belongs 26%. In turn, “RNA1{m(A)p.r(A)p.m(A)p.r(C)p.m(G)p.r(U)p.m(G)p.r(A)p.m(C)p.r(U)p.m(U)p.r(U)p.m(G)p.r(G)p.m(U)p.r(U)p.m(C)p.r(C)p.m(U)p.r(T)p.r(T)}|RNA2{r(A)p.m(G)p.m(G)p.r(A)p.r(A)p.r(C)p.r(C)p.r(A)p.r(A)p.r(A)p.m(G)p.r(U)p.r(C)p.r(A)p.r(C)p.m(G)p.r(U)p.r(U)p.r(U)p.r(T)p.r(T)}$$$RNA1{StrandType:ss}|RNA2{StrandType:as}$” displayed a target mRNA knockdown of 37%.

Turning to “RNA1{r(G)p.r(U)p.r(A)p.r(U)p.r(U)p.r(G)p.r(A)p.r(C)p.r(A)p.r(G)p.r(C)p.r(U)p.r(A)p.r(U)p.r(U)p.r(C)p.r(G)p.r(A)p.r(A)p.d(T)p.d(T)}|RNA2{r(U)p.r(U)p.r(C)p.r(G)p.r(A)p.r(A)p.r(U)p.r(A)p.r(G)p.r(C)p.r(U)p.r(G)p.r(U)p.r(C)p.r(A)p.r(A)p.r(U)p.r(A)p.r(C)p.d(T)p.d(T)}$$$RNA1{StrandType:ss}|RNA2{StrandType:as}$”, the target mRNA knockdown amounted to 73%. “RNA1{r(G)p.r(G)p.r(G)p.r(A)p.r(A)p.r(A)p.r(C)p.r(U)p.r(G)p.r(A)p.r(A)p.r(A)p.r(G)p.r(G)p.r(C)p.r(U)p.r(A)p.r(U)p.r(G)p.r(T)p.r(T)}|RNA2{[fl2r](C)p.r(A)p.[fl2r](U)p.r(A)p.r(G)p.[fl2r](C)p.[fl2r](C)p.[fl2r](U)p.[fl2r](U)p.[fl2r](U)p.[fl2r](C)p.r(A)p.r(G)p.[fl2r](U)p.[fl2r](U)p.[fl2r](U)p.[fl2r](C)p.[fl2r](C)p.[fl2r](C)p.r(T)p.r(T)}$$$RNA1{StrandType:ss}|RNA2{StrandType:as}$” displayed a target mRNA knockdown of 6%. To “RNA1{r(C)p.r(U)p.r(U)p.r(A)p.r(C)p.r(G)p.r(C)p.r(U)p.r(G)p.r(A)p.r(G)p.r(U)p.r(A)p.r(C)p.r(U)p.r(U)p.r(C)p.r(G)p.r(A)p.r(T)p.r(T)}|RNA2{r(U)p.r(C)p.[lna](G)p.r(A)p.r(A)p.r(G)p.r(U)p.r(A)p.r(C)p.r(U)p.r(C)p.r(A)p.r(G)p.r(C)p.r(G)p.r(U)p.r(A)p.r(A)p.r(G)p.r(T)p.r(T)}$$$RNA1{StrandType:ss}|RNA2{StrandType:as}$” belongs 82%; to “RNA1{r(A)p.r(G)p.r(A)p.r(A)p.r(G)p.r(G)p.r(A)p.r(C)p.m(U)p.r(A)p.r(C)p.m(U)p.r(A)p.r(A)p.r(C)p.r(C)p.r(U)p.r(C)p.r(C)p.r(T)p.r(T)}|RNA2{r(G)p.r(G)p.r(A)p.r(G)p.r(G)p.r(U)p.r(U)p.r(A)p.r(G)p.m(U)p.r(A)p.r(G)p.r(U)p.r(C)p.r(C)p.r(U)p.r(U)p.r(C)p.r(U)p.r(T)p.r(T)}$$$RNA1{StrandType:ss}|RNA2{StrandType:as}$”, 81%; to “RNA1{r(C)p.r(U)p.r(U)p.r(A)p.r(C)p.r(G)p.r(C)p.r(U)p.r(G)p.r(A)p.r(G)p.r(U)p.r(A)p.r(C)p.r(U)p.r(U)p.r(C)p.r(G)p.r(A)p.r(T)p.r(T)}|RNA2{r(T)p.r(C)p.r(G)p.r(A)p.r(A)p.[lna](G)p.r(U)p.r(A)p.r(C)p.r(U)p.r(C)p.r(A)p.r(G)p.r(C)p.r(G)p.r(U)p.r(A)p.r(A)p.r(G)p.[lna](T)p.[lna](T)}$$$RNA1{StrandType:ss}|RNA2{StrandType:as}$”, 85%. The result for “RNA1{r(A)p.r(G)p.r(G)p.r(A)p.r(C)p.r(G)p.r(G)p.r(U)p.r(A)p.r(C)p.r(U)p.r(U)p.r(U)p.r(C)p.r(G)p.r(A)p.r(A)p.r(A)p.r(G)p.r(T)p.r(T)}|RNA2{r(C)p.r(U)p.r(U)p.r(U)p.r(C)p.r(G)p.r(A)p.r(A)p.r(A)p.r(G)p.r(U)p.m(A)p.r(C)p.r(C)p.r(G)p.r(U)p.r(C)p.r(C)p.r(U)p.r(T)p.r(T)}$$$RNA1{StrandType:ss}|RNA2{StrandType:as}$” reads 46%. The result for “RNA1{r(C)p.r(U)p.r(U)p.r(A)p.r(C)p.r(G)p.r(C)p.r(U)p.r(G)p.r(A)p.r(G)p.r(U)p.r(A)p.r(C)p.r(U)p.r(U)p.r(C)p.r(G)p.r(A)p.d(T)p.d(T)}|RNA2{r(U)p.r(C)p.r(G)p.r(A)p.r(A)p.r(G)p.r(U)p.r(A)p.r(C)p.r(U)p.r(C)p.r(A)p.r(G)p.r(C)p.r(G)p.r(U)p.r(A)p.r(A)p.r(G)p.[lna](T)p.[lna](T)}$$$RNA1{StrandType:ss}|RNA2{StrandType:as}$” reads 92%; that for “RNA1{r(G)p.r(U)p.r(A)p.r(U)p.r(G)p.r(A)p.r(C)p.r(C)p.r(G)p.r(A)p.r(C)p.r(U)p.r(A)p.r(C)p.r(G)p.r(C)p.r(G)p.r(U)p.r(A)p.r(T)p.r(T)}|RNA2{r(U)p.r(U)p.r(C)p.r(A)p.r(G)p.r(U)p.r(G)p.r(U)p.r(G)p.r(A)p.[una](U)p.r(G)p.r(A)p.r(C)p.r(A)p.r(C)p.r(U)p.r(U)p.r(G)p.r(T)p.r(T)}$$$RNA1{StrandType:ss}|RNA2{StrandType:as}$”, 0%.

In turn, “RNA1{r(U)p.[fl2r](U)p.r(A)p.r(C)p.r(C)p.r(C)p.r(C)p.r(G)p.r(A)p.r(U)p.r(U)p.[fl2r](C)p.r(A)p.r(G)p.r(C)p.r(C)p.r(U)p.r(C)p.r(U)p.r(T)p.r(T)}|RNA2{r(A)p.r(G)p.r(A)p.r(G)p.r(G)p.r(C)p.[fl2r](U)p.r(G)p.r(A)p.r(A)p.r(U)p.r(C)p.r(G)p.r(G)p.r(G)p.r(G)p.[fl2r](U)p.r(A)p.r(A)p.r(T)p.r(T)}$$$RNA1{StrandType:ss}|RNA2{StrandType:as}$” showed a target mRNA knockdown of 82%. To “RNA1{m(C)p.r(U)p.m(C)p.r(U)p.m(G)p.r(G)p.m(C)p.r(C)p.m(U)p.m(U)p.r(U)p.r(C)p.m(U)p.r(C)p.m(U)p.r(C)p.m(U)p.r(A)p.m(G)p.r(T)p.r(T)}|RNA2{r(C)p.r(U)p.r(A)p.r(G)p.r(A)p.r(G)p.r(A)p.r(G)p.r(A)p.r(A)p.r(A)p.r(G)p.r(G)p.r(C)p.r(C)p.r(A)p.r(G)p.r(A)p.r(G)p.r(T)p.r(T)}$$$RNA1{StrandType:ss}|RNA2{StrandType:as}$” belongs 24%.
